These results are taken from patent publication US20170217964A1, “AMINOTETRAHYDROPYRAN DERIVATIVE USED AS DIPEPTIDYL PEPTIDASEIV INHIBITOR” (FUJIAN BORO MEDICAL CO., LTD., priority 2014, published 2017).

A short description of series [1]: stability test of human liver microsomes. It counts as in vitro ADME.
The target in another series is T1, DPP-4 enzyme (Homo sapiens, UniProt P27487).
T1 construct: purchased SIGMA
The experiment in a line: Test of the inhibition activity to the DPP-4 enzyme (fluorescence, substrate Gly-Pro-7-amido-4-methylcoumarin). In kind it is biochemical. The settings on record: in vitro; compounds of the examples; read-out: DPP-4 inhibition ID50. From the text:
Test of the inhibition activity of the compound of the present invention to the DPP-4 enzyme: […]

T1 sequence (P27487 whole entry, species assumed): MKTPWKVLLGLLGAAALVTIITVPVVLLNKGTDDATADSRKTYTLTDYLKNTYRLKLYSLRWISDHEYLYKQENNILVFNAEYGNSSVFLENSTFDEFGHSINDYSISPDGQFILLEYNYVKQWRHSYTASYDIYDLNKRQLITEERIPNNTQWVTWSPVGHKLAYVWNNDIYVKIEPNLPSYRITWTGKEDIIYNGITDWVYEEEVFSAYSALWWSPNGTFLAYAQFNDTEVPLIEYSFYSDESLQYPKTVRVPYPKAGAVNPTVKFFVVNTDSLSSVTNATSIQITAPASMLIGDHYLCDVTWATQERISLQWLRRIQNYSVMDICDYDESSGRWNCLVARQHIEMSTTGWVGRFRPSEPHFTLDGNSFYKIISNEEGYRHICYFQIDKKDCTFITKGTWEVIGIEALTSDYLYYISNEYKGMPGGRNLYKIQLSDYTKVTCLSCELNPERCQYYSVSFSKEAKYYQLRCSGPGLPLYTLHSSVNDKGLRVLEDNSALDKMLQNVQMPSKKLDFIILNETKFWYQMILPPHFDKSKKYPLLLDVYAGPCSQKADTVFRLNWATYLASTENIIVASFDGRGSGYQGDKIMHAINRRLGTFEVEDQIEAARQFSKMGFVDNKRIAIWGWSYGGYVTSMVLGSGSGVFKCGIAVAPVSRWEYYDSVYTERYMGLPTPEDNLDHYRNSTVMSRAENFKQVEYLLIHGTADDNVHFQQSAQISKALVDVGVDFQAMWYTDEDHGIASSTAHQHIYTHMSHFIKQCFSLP

As to `N[C@H]1C[C@@H](N2Cc3cn(S(=O)(=O)N4CCOCC4)nc3C2)CO[C@@H]1c1cc(F)ccc1F` [Compound 1, (2R, 3S, 5R)-2-(2,5-difluorophenyl)-5-[2-(morpholinesulfonyl)-2,6-dihydropyrrolo[3,4,-c]pyrazol-5(4H)-yl]tetrahydro-2H-pyran-3-amine], the “metabolism stability compared with MK-3102” value in series [1] was “better metabolism stability”. In addition, the IC50 at DPP-4 enzyme is 0.5 nM.
Regarding `N[C@H]1C[C@@H](N2Cc3cn(S(=O)(=O)N4CCCCC4)nc3C2)CO[C@@H]1c1cc(F)ccc1F` [Compound 2, (2R, 3S, 5R)-2-(2,5-difluorophenyl)-5-[2-(piperidinesulfonyl)-2,6-dihydropyrrolo[3,4,-c]pyrazol-5(4H)-yl]tetrahydro-2H-pyran-3-amine], the IC50 at DPP-4 enzyme worked out at 0.8 nM.
The same measure, in the same setting: the value for `N[C@H]1C[C@@H](N2Cc3cn(S(=O)(=O)N4CCCC4)nc3C2)CO[C@@H]1c1cc(F)ccc1F` [Compound 3] was 0.3 nM.
Take `CN1CCN(S(=O)(=O)n2cc3c(n2)CN([C@H]2CO[C@H](c4cc(F)ccc4F)[C@@H](N)C2)C3)CC1` [Compound 4, (2R, 3S, 5R)-2-(2,5-difluorophenyl)-5-[2-(N-methylpiperazinesulfonyl)-2,6-dihydropyrrolo[3,4,-c]pyrazol-5(4H)-yl]tetrahydro-2H-pyran-3-amine]: the “metabolism stability compared with MK-3102” value in series [1] was “better metabolism stability”. On DPP-4 enzyme, the IC50 was determined as 0.6 nM.
Regarding `N[C@H]1C[C@@H](N2Cc3cn(S(=O)(=O)N4CCN(C5CCCC5)CC4)nc3C2)CO[C@@H]1c1cc(F)ccc1F` [Compound 5, (2R, 3S, 5R)-2-(2,5-difluorophenyl)-5-[2-(4-cyclopentylpiperazine-1-yl-sulfonyl)-2,6-dihydropyrrolo[3,4,-c]pyrazol-5(4H)-yl]tetrahydro-2H-pyran-3-amine], the IC50 at DPP-4 enzyme came out at 0.2 nM.
Still for that read-out and setting: the value for `N[C@H]1C[C@@H](N2Cc3cn(S(=O)(=O)N4CCC4)nc3C2)CO[C@@H]1c1cc(F)ccc1F` [Compound 13, (2R, 3S, 5R)-2-(2,5-difluorophenyl)-5-[2-(azetidine-1-sulfonyl)-2,6-dihydropyrrolo[3,4,-c]pyrazol-5(4H)-yl]tetrahydro-2H-pyran-3-amine] was 0.5 nM.
On the same count and under the same terms, the figure for `CC1CCN(S(=O)(=O)n2cc3c(n2)CN([C@H]2CO[C@H](c4cc(F)ccc4F)[C@@H](N)C2)C3)CC1` [Compound 14] is 0.4 nM.
Still for that read-out and setting: the figure for `N[C@H]1C[C@@H](N2Cc3cn(S(=O)(=O)N4CC5CCCCC5C4)nc3C2)CO[C@@H]1c1cc(F)ccc1F` (stereo partly drawn) [Compound 15, (2R, 3S, 5R)-2-(2,5-difluorophenyl)-5-[2-(perhydroindole-1 sulfonyl)-2,6-dihydropyrrolo[3,4,-c]pyrazol-5(4H)-yl]tetrahydro-2H-pyran-3-amine] is 0.7 nM.
